Assay results taken from patent US12551576B2, “Chemiluminescent probes” (The General Hospital Corporation, priority 2020, dated 2026).
Like-named read-outs stand apart in the source and are kept apart here.

Experiments:
[1] = test system: beta-sheet misfoldons in mixed HC and disease serum; set-up: species or system human
Transthyretin = Transthyretin (Homo sapiens, UniProt P02766); assay: Aβ aggregates incubated with transthyretin
Aβs = Aβs (Homo sapiens, UniProt P05067); assay: In vivo chemiluminescence imaging with ADLumin-1; set-up: species or system 5×FAD mice
Sequence of Aβs (P05067 672-713 limits assumed): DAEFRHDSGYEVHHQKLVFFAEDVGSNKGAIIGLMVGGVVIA
Experimental: The IVIS Spectrum animal imaging system (PerkinElmer) was used for in vivo imaging. Images were acquired with open filter or specific emission filters. […] Chemiluminescent signals from the eyes were recorded at 0 and 45 min after i.v. injection of the probe. Sequence images were captured at 15 min after probe injection with the following parameters: sequence filter from 500 nm to 840 nm with an interval of 20 nm; Exposure time is 30 s, FOV=D. […] To evaluate the imaging results, an ROI was drawn around the brain or the eye region. Student t-test was used to calculate P values.

[2] = Fluorescence and chemiluminescence spectral studies; format: physicochemical
Experimental: Materials and Methods: reagents used for the synthesis were purchased from Sigma-Aldrich and used without further purification. Column chromatography was performed on a glass column slurry-packed with silica gel (60 Å, […]; SiliCycle Inc.). Recombinant Aβ peptide (1-40/42) were purchased from rPeptide (A-1163-1). Aβ aggregates for in vitro studies were generated by slow stirring of Aβ40 in PBS buffer for 3 days at room temperature. ^1H and ^13C NMR spectra were recorded at 500 MHz and 125 MHz on Bruker spectrometers in CDCl3, CD3OD or DMSO-d6 solutions at room temperature with tetramethylsilane (TMS, δ=0) as an internal standard. Liquid chromatography-mass spectrometry (LC-MS) was performed using an Agilent 1200 Series apparatus with an LC/MSD trap and Daly conversion dynode detector with UV detection at 254 nm. Fluorescence measurements were carried out using an F-7100 fluorescence spectrophotometer (Hitachi). Transgenic female 5×FAD mice and age-matched wild-type female mice were purchased from Jackson Laboratory. All animal experiments were approved by the Institutional Animal Use and Care Committee at Massachusetts General Hospital. The IVIS Spectrum animal imaging system (PerkinElmer) was used for in vitro and in vivo imaging.
Fluorescence spectral studies: Normally, all chemiluminescent molecules are fluorescent. The excitation and emission spectra of ADLumin-X were recorded and the emission peak of ADLumin-1 was around 590 nm (FIG. 1D) in DMSO, which is considerably longer than most of the commercially available chemiluminescence probes. The emission of ADLumin-2 is longer than that of ADLumin-1, due to its additional double-bond. (the emission peak of ADLumin-2 was 20 nm longer). […] Based on this fact, ADLumin-1 was used throughout this example, due to its high QY.
Chemiluminescence spectral studies: ADLumin-1 is stable in PBS buffer and organic solvents, including acetonitrile, dichloromethane and methanol. […] Without being bound by any theory, it is believed that the luminescence was due to the auto-oxidation of ADLumin-1. Although the mechanism of chemiluminescence of IPO derivatives has been studied, the mechanism of auto-oxidation has been rarely explored. In the course of the experiments, ADLumin-1 emitted very strong luminescence in pure DMSO (FIG. 2b). Unexpectedly, if the ADLumin-1 DMSO solution was stirred, even stronger luminescence can be detected (3.4-fold in FIG. 2b). Without being bound by any theory, it is believed that the luminescence was related to oxygen levels in DMSO. […] However, the increasing-fold decreased with cycles (FIG. 2c). […] Since no ROS were added into the DMSO solution, it is reasonable to infer that the auto-oxidation of ADLumin-1 was oxygen-level dependent. It is worthy to note that green fluorescent protein and luciferase/luciferin also dependent on oxygen for their proper imaging functions.

[3] = Oxygen sensitivity of ADLumin-1; format: physicochemical
Experimental: Oxygen and ROS sensitivity of ADLumin-1: A 100.0 μL DMSO solution of ADLumin-1 (200.0 μM) was added to a well in a 96-well plate. One group was bubbled with oxygen for 5 seconds at different time points, and the control group was sealed without bubbling. Once the bubbling was over, the plate was subjected to chemiluminescence intensity recording with the IVIS system with the open filter setting (500 nm-840 nm). For ROS tests, A PBS solution (240 μL) was incubated in an Eppendorf tube. To each of above tubes, different ROS (H2O2 30 μL, […] 30 μL, TBHP 30 μL and KO2 30 μL) was added, respectively. Then, a solution of ADLumin-1 in DMSO (30 μL, 250.0 μM) was added. Finally, 100.0 μL of the resulting solution was transferred into a well of 96-well plate, and triplicated samples were prepared. Chemiluminescence images were obtained with an IVIS system under the open filter (500 nm-840 nm).

PA-K2 = assay: Chemiluminescence detection of model beta-sheet aggregates (PA-K2); format: binding
Apolipoprotein A-I (APO) = Apolipoprotein A-I (APO) (Homo sapiens, UniProt P02647); assay: Aβ aggregates incubated with APO
Sequence of Apolipoprotein A-I (APO) (P02647 25-267): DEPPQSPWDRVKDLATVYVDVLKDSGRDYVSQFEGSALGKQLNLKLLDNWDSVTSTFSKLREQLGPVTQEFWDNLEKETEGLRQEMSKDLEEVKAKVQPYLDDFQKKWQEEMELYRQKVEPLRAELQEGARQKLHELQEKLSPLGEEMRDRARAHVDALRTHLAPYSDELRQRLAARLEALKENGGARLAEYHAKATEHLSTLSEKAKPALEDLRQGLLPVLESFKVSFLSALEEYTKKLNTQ

Immunoglobulin G (IgG) = assay: Aβ aggregates incubated with IgG
insulin = molecular target: T1, insulin (Homo sapiens, UniProt P01308); assay: Chemiluminescence with misfoldon aggregates in PBS (insulin); format: binding
T1 construct: immunoglobulin G (IgG), proinsulin, insulin, and apolipoprotein A-I (APO)
T1 sequence (P01308 25-54 limits assumed, species assumed): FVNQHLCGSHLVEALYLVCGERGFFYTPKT
T1 sequence (P01308 90-110 limits assumed, species assumed): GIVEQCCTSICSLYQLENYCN

[4] = molecular target: Aβ40 aggregates, monomers and oligomers in human serum (Homo sapiens, UniProt P05067); assay: Chemiluminescence of Aβ40 species incubated with non-diluted human serum
Sequence of Aβ40 aggregates, monomers and oligomers in human serum (P05067 672-711 limits assumed): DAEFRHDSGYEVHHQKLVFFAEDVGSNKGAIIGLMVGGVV

[5] = chemiluminescence / bioluminescence spectra

Cc1nc2c[nH]c(/C=C/C=C/c3ccc(N(C)C)cc3)cn-2c1=O [ADLumin-1, 6-((1E,3E)-4-(4-(dimethylamino)phenyl)buta-1,3-dien-1-yl)-2-methylimidazo[1,2-a]pyrazin-3(7H)-one]
total signal of mixed group vs sum of 90% HC serum and 10% AD serum [1]: 1.66 fold
signal mixture of HC serum and disease serum vs HC serum ([1]; 10% diabetes serum): 3.34 fold
signal mixture of HC serum and disease serum vs HC serum ([1]; 10% multiple sclerosis serum): 7.24 fold
signal mixture of HC serum and disease serum vs HC serum ([1]; 10% pulmonary fibrosis serum): 4.60 fold
signal mixture of HC serum and disease serum vs HC serum ([1]; 10% rheumatoid arthritis serum): 6.64 fold
chemiluminescence signal mixed group vs 100% HC serum ([1]; 90% HC serum and 10% AD serum): 7.75 fold
intensity Aβ/transthyretin group vs control group (Transthyretin): higher intensity
chemiluminescence signal 5×FAD vs age-matched wild-type mice (Aβs; 5-month-old mice, summary statement): 1.80 fold
brain chemiluminescence signal difference 5×FAD vs WT (Aβs; 640 nm filter): 1.7 fold
brain chemiluminescence signal difference 5×FAD vs WT (Aβs; 15 minutes after i.v. injection, open filter): 1.7 fold
brain chemiluminescence signal difference 5×FAD vs WT (Aβs; 30 minutes after i.v. injection, open filter): 1.8 fold
chemiluminescence signals from eyes 5×FAD vs WT (Aβs; mouse, in vivo): 1.6 fold
chemiluminescence signals from noses 5×FAD vs WT (Aβs; mouse, in vivo): 1.7 fold
stability ([2]; PBS buffer and organic solvents, including acetonitrile, dichloromethane and methanol): stable
emission peak (FWHM comparison) [2, 5]: 540 nm
full width at half-maximum (FWHM) [2, 5]: 94 nm
fluorescence emission peak ([2]; in DMSO): around 590 nm
chemiluminescence emission peak ([2]; in the presence of 10% DMSO): around 540 nm
response time to O2 [3]: within seconds
luminescence increase after stirring ([3]; ADLumin-1 DMSO solution): 3.4 fold
chemiluminescence intensity increase after O2 bubbling ([3]; DMSO solution, after first 5 seconds bubbling): 27 fold
intensity ratio of PA-K2/PA-K (PA-K2): about 47.5 fold
low limit of detection (LOD) lower than that of ThT (PA-K2): 100 fold
chemiluminescence signal increase vs ADLumin-1 only in PBS (PA-K2; ADLumin-1 2.5 μM, PA-K2 0.5 mg/ml, PBS): 101 fold
peptide concentration range of concentration dependent intensity (PA-K2; PA-K2 and PA-E2): 0.001 to 1.0 mg/mL
peptide concentration at which PA-K and PA-K2 are differentiated (PA-K2; chemiluminescence): 0.001 mg/mL
ADLumin-1 concentration range of linear response (PA-K2; with 0.5 mg/ml PA-K2): 0.001 to 0.1 mg/mL
intensity Aβ/APO group vs control group (Apolipoprotein A-I (APO)): higher intensity
chemiluminescence intensity IgG/Aβ group vs IgG group (Immunoglobulin G (IgG); incubation 30 minutes): 1.81 fold
chemiluminescence intensity IgG/Aβ group vs IgG group (Immunoglobulin G (IgG); incubation 60 minutes): 1.71 fold
chemiluminescence intensity IgG/Aβ group vs IgG group (Immunoglobulin G (IgG); incubation 120 minutes): 2.55 fold
largest chemiluminescence difference with aggregates (insulin; ADLumin-1 2.5 μM, insulin aggregates 2.5 μM, PBS): 10.8 fold
signal decay T½ (insulin; with insulin aggregates): > 1 h
chemiluminescence ratio of the Aβ group and the control group ([4]; Aβ40 aggregate 2.5 μM): about 3.43 fold
chemiluminescence intensity Aβ group vs control group ([4]; Aβ monomers): 1.96 fold
chemiluminescence intensity Aβ group vs control group ([4]; Aβ oligomers): 1.71 fold
